Laboratory results reported in PubChem BioAssay (NCI).
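Cells were grown in 96-well plates and exposed to each compound for 48 hours at five concentrations; endpoints were interpolated linearly between bracketing concentrations, or set to the highest concentration if not reached. GI50 = concentration required for 50% inhibition of growth. TGI denotes the concentration required for complete inhibition of growth.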

Experiments:
Assay in all cases: NCI tumour cell line growth inhibition, 48 h
HOP-92 NSCLC = system: HOP-92 NSCLC
TK-10 renal = system: TK-10 renal
SF-268 CNS = system: SF-268 CNS
SK-MEL-28 melanoma = system: SK-MEL-28 melanoma
EKVX NSCLC = system: EKVX NSCLC
NCI-H460 lung = system: NCI-H460 lung
HCC-2998 colon = system: HCC-2998 colon
COLO 205 colon = system: COLO 205 colon
SF-295 CNS = system: SF-295 CNS
UO-31 renal = system: UO-31 renal
MDA-MB-435 = system: MDA-MB-435
OVCAR-4 ovarian = system: OVCAR-4 ovarian
NCI-H23 lung = system: NCI-H23 lung
DU-145 prostate = system: DU-145 prostate
SNB-19 CNS = system: SNB-19 CNS
KM12 colon = system: KM12 colon
SK-MEL-5 melanoma = system: SK-MEL-5 melanoma
NCI-H226 lung = system: NCI-H226 lung
OVCAR-5 ovarian = system: OVCAR-5 ovarian
NCI/ADR-RES ovarian = system: NCI/ADR-RES ovarian
RXF 393 renal = system: RXF 393 renal
MCF7 breast = system: MCF7 breast
HS 578T breast = system: HS 578T breast
A498 renal = system: A498 renal
SK-OV-3 ovarian = system: SK-OV-3 ovarian
CAKI-1 renal = system: CAKI-1 renal
U251 CNS = system: U251 CNS
T-47D breast = system: T-47D breast
MALME-3M melanoma = system: MALME-3M melanoma
MOLT-4 leukemia = system: MOLT-4 leukemia
HL-60(TB) leukemia = system: HL-60(TB) leukemia
SN12C renal = system: SN12C renal
HCT-15 colon = system: HCT-15 colon
RPMI-8226 leukemia = system: RPMI-8226 leukemia
A549 NSCLC = system: A549 NSCLC
SW-620 colon = system: SW-620 colon
NCI-H522 lung = system: NCI-H522 lung
786-0 renal = system: 786-0 renal
OVCAR-8 ovarian = system: OVCAR-8 ovarian
SNB-75 CNS = system: SNB-75 CNS
PC-3 prostate = system: PC-3 prostate
HOP-62 NSCLC = system: HOP-62 NSCLC
IGROV1 ovarian = system: IGROV1 ovarian
K-562 leukemia = system: K-562 leukemia
M14 melanoma = system: M14 melanoma
MDA-MB-231 breast = system: MDA-MB-231 breast
HCT-116 colon = system: HCT-116 colon
ACHN renal = system: ACHN renal

Cc1cc(C)c([O-])c(CN(C)CCN(C)Cc2cc(C)cc(C)c2[O-])c1.O=C([O-])c1cccc(C(=O)[O-])n1.[Ti+4]
GI50 (HOP-92 NSCLC): 2.51 µM
TGI (HOP-92 NSCLC): 6.47 µM
GI50 (TK-10 renal): 1.71 µM
TGI (TK-10 renal): 5.47 µM
GI50 (SF-268 CNS): 3.91 µM
TGI (SF-268 CNS): > 100 µM
GI50 (SK-MEL-28 melanoma): 2.42 µM
TGI (SK-MEL-28 melanoma): 8.37 µM
GI50 (EKVX NSCLC): 3.4 µM
TGI (EKVX NSCLC): > 100 µM
GI50 (NCI-H460 lung): 2.01 µM
TGI (NCI-H460 lung): > 100 µM
GI50 (HCC-2998 colon): 2.98 µM
TGI (HCC-2998 colon): > 100 µM
GI50 (COLO 205 colon): 2.4 µM
TGI (COLO 205 colon): 5.01 µM
GI50 (SF-295 CNS): 2.57 µM
TGI (SF-295 CNS): > 100 µM
GI50 (UO-31 renal): 2.26 µM
TGI (UO-31 renal): > 100 µM
GI50 (MDA-MB-435): 2.89 µM
TGI (MDA-MB-435): > 100 µM
GI50 (OVCAR-4 ovarian): 2.87 µM
TGI (OVCAR-4 ovarian): > 100 µM
GI50 (NCI-H23 lung): 2.03 µM
TGI (NCI-H23 lung): 5.06 µM
GI50 (DU-145 prostate): 4.57 µM
TGI (DU-145 prostate): > 100 µM
GI50 (SNB-19 CNS): 3.25 µM
TGI (SNB-19 CNS): > 100 µM
GI50 (KM12 colon): 3.36 µM
TGI (KM12 colon): > 100 µM
GI50 (SK-MEL-5 melanoma): 2.9 µM
TGI (SK-MEL-5 melanoma): > 100 µM
GI50 (NCI-H226 lung): 2.35 µM
TGI (NCI-H226 lung): > 100 µM
GI50 (OVCAR-5 ovarian): 2.31 µM
TGI (OVCAR-5 ovarian): > 100 µM
GI50 (NCI/ADR-RES ovarian): 2.71 µM
TGI (NCI/ADR-RES ovarian): > 100 µM
GI50 (RXF 393 renal): 1.42 µM
TGI (RXF 393 renal): 3.96 µM
GI50 (MCF7 breast): 3.17 µM
TGI (MCF7 breast): > 100 µM
GI50 (HS 578T breast): 2.29 µM
TGI (HS 578T breast): > 100 µM
GI50 (A498 renal): 3.72 µM
TGI (A498 renal): > 100 µM
GI50 (SK-OV-3 ovarian): 3.54 µM
TGI (SK-OV-3 ovarian): > 100 µM
GI50 (CAKI-1 renal): 3.93 µM
TGI (CAKI-1 renal): > 100 µM
GI50 (U251 CNS): 2.92 µM
TGI (U251 CNS): > 100 µM
GI50 (T-47D breast): 1.28 µM
TGI (T-47D breast): > 100 µM
GI50 (MALME-3M melanoma): 1.45 µM
TGI (MALME-3M melanoma): 5.21 µM
GI50 (MOLT-4 leukemia): 3.12 µM
TGI (MOLT-4 leukemia): > 100 µM
GI50 (HL-60(TB) leukemia): 1.69 µM
TGI (HL-60(TB) leukemia): 5.56 µM
GI50 (SN12C renal): 3.69 µM
TGI (SN12C renal): > 100 µM
GI50 (HCT-15 colon): 3.5 µM
TGI (HCT-15 colon): > 100 µM
GI50 (RPMI-8226 leukemia): 1.37 µM
TGI (RPMI-8226 leukemia): 5.17 µM
GI50 (A549 NSCLC): 3.18 µM
TGI (A549 NSCLC): > 100 µM
GI50 (SW-620 colon): 2.89 µM
TGI (SW-620 colon): > 100 µM
GI50 (NCI-H522 lung): 2.08 µM
TGI (NCI-H522 lung): 5.47 µM
GI50 (786-0 renal): 1.83 µM
TGI (786-0 renal): > 100 µM
GI50 (OVCAR-8 ovarian): 2.8 µM
TGI (OVCAR-8 ovarian): > 100 µM
GI50 (SNB-75 CNS): 1.67 µM
TGI (SNB-75 CNS): 5.65 µM
GI50 (PC-3 prostate): 2.7 µM
TGI (PC-3 prostate): > 100 µM
GI50 (HOP-62 NSCLC): 2.92 µM
TGI (HOP-62 NSCLC): 8.47 µM
GI50 (IGROV1 ovarian): 3.2 µM
TGI (IGROV1 ovarian): > 100 µM
GI50 (K-562 leukemia): 2.67 µM
TGI (K-562 leukemia): > 100 µM
GI50 (M14 melanoma): 1.7 µM
TGI (M14 melanoma): > 100 µM
GI50 (MDA-MB-231 breast): 3.42 µM
TGI (MDA-MB-231 breast): > 100 µM
GI50 (HCT-116 colon): 0.383 µM
TGI (HCT-116 colon): 22.3 µM
GI50 (ACHN renal): 2.43 µM
TGI (ACHN renal): > 100 µM
